Ki and Inhibition data for 18 molecules are collected here from ChEMBL document CHEMBL1144396 (J Med Chem, 2005).

SMILES strings stand for the structures.

The test concerns the target T1, Equilibrative nucleoside transporter 1 (Homo sapiens, UniProt Q99808).
T1 sequence (Q99808 whole entry): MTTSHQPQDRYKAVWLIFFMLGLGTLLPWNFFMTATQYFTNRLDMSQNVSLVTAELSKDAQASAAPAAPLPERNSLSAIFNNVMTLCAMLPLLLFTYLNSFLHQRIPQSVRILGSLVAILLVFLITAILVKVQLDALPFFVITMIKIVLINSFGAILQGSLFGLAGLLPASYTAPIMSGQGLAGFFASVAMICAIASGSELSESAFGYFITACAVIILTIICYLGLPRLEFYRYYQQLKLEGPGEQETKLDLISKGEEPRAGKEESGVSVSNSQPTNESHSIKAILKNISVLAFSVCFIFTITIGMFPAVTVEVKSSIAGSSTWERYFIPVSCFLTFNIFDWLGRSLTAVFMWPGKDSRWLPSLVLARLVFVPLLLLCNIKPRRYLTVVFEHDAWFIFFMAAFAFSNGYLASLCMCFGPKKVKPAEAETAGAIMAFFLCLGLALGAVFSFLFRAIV
Put plainly: Inhibition of [3H]NBTI binding to equilibrative nucleoside transport protein 1 (ENT1) in human erythrocyte membranes. Format: cell membranes.
A word on the Ki: it is a dissociation constant, usually derived from enzyme kinetics or from competition with a known ligand. Molecule `CCCNc1nc2c(NC3CCCC3)ncnc2n1[C@@H]1O[C@H](CO)[C@@H](O)[C@H]1O` yielded a Ki of 97 nM.
In turn, `O=[N+]([O-])c1ccc(CSc2ncnc3c2nc(N2CCCC2)n3Cc2ccccc2)cc1` had a Ki of 1520 nM.
Turning to `O=[N+]([O-])c1ccc(CSc2ncnc3c2nc(N2CCOCC2)n3Cc2ccccc2)cc1`, the Ki stood at 51 nM.
The same measure, in the same setting: the same measure for `OC[C@H]1OC(n2c(NC3CC3)nc3c(SCc4ccccc4)ncnc32)[C@H](O)[C@@H]1O` (stereo partly drawn): 3 nM; for `CCCCNc1nc2c(SCc3ccccc3)ncnc2n1C1O[C@H](CO)[C@@H](O)[C@H]1O` (stereo partly drawn): 5.4 nM.
With `OC[C@H]1OC(n2c(NC3CCCCC3)nc3c(SCc4ccccc4)ncnc32)[C@H](O)[C@@H]1O` (stereo partly drawn), the Ki stood at 0.94 nM.
Molecule `OC[C@H]1OC(n2c(N3CCCCC3)nc3c(SCc4ccccc4)ncnc32)[C@H](O)[C@@H]1O` (stereo partly drawn) showed a Ki of 744 nM.
On the same count and under the same terms, the same measure for `OC[C@H]1OC(n2c(N3CCCC3)nc3c(SCc4ccccc4)ncnc32)[C@H](O)[C@@H]1O` (stereo partly drawn): 410 nM; for `CCNc1nc2c(SCc3ccccc3)ncnc2n1C1O[C@H](CO)[C@@H](O)[C@H]1O` (stereo partly drawn): 9.5 nM.
Same read-out and setting: as for `CCCNc1nc2c(SCc3ccccc3)ncnc2n1C1O[C@H](CO)[C@@H](O)[C@H]1O` (stereo partly drawn), the figure is 5.3 nM; as for `CNc1nc2c(SCc3ccccc3)ncnc2n1C1O[C@H](CO)[C@@H](O)[C@H]1O` (stereo partly drawn), 28 nM.
On the same count and under the same terms, the same measure for `CCCCCNc1nc2c(SCc3ccccc3)ncnc2n1C1O[C@H](CO)[C@@H](O)[C@H]1O` (stereo partly drawn): 2.3 nM; for `OC[C@H]1OC(n2c(NC3CCCC3)nc3c(SCc4ccccc4)ncnc32)[C@H](O)[C@@H]1O` (stereo partly drawn): 0.64 nM; for `CCCCCCNc1nc2c(SCc3ccccc3)ncnc2n1C1O[C@H](CO)[C@@H](O)[C@H]1O` (stereo partly drawn): 3.7 nM.
In the case of `CCC(C)CNc1nc2c(SCc3ccccc3)ncnc2n1C1O[C@H](CO)[C@@H](O)[C@H]1O` (stereo partly drawn), the affinity corresponds to a Ki of 3.6 nM.
One may read the Inhibition as the change of the read-out against control, counted positive when it falls. Higher therefore signals strong suppression. `OC[C@H]1OC(n2c(N3CCOCC3)nc3c(SCc4ccccc4)ncnc32)[C@H](O)[C@@H]1O` (stereo partly drawn) registered an Inhibition of 33%.
For the molecule `OC[C@H]1O[C@@H](n2cnc3c(SCc4ccccc4)ncnc32)[C@H](O)[C@@H]1O` [6-BENZYLTHIOINOSINE], the Ki amounted to 53 nM.
The molecule `OC[C@H]1O[C@@H](n2cnc3c(NC4CCCC4)ncnc32)[C@H](O)[C@@H]1O` [N6-CYCLOPENTYLADENOSINE] returned a Ki of 1100 nM.
